Experimental data from US20240376097A1, “BCL-2 Inhibitor” (BeiGene Ltd., priority 2020, published 2024).

Columns and labels:
[1] = tested on: BCL-2 G101V knock-in cell line H96 (derive from RS4;11); test: Bcl 2-G101V Knock-In RS4;11 Cell Proliferation Assay; assay type: cell-based; conditions: Homo sapiens, RS4;11 Bcl-2 G101V knock-in clone H96, 48 hrs, CellTiter-GLO, read-out: Cellular proliferation assay (IC50, nM) RS4
Summary of the method: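 CellTiter-Glo luminescence after 48 h, 37 °C compound treatment (10 concentrations, maximum 1 μM or 10 μM) gave mean IC50 values. Cells were 50,000 per well of H96, a BCL2-G101V knock-in single clone derived from RS4;11 by Cas9 editing.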

[2] = tested on: recombinant human Bcl-2-G101V protein; test: Bcl-2-G101V TR-FRET Assay; assay type: binding; conditions: ratio of biochemical IC50 Bcl-2 G101V / Bcl-2 WT
Summary of the method: (§1)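 Percent inhibition of the Bcl-2-G101V–ligand interaction was computed from the 490 nm to 520 nm emission ratio after 337 nm excitation, over increasing compound concentrations; a four-parameter logistic fit gave IC50.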

[3] = molecular target: recombinant human Bcl-2-G101V protein (Homo sapiens (Human), UniProt P10415, G101V); test: Bcl-2-G101V TR-FRET Assay; assay type: binding; conditions: Bcl-2 G101V mutant, TR-FRET; read-out: Biochemical assay (IC50, nM) Bcl-2 G101V
Summary of the method: as §1

[4] = molecular target: Recombinant human Bcl-2 protein (Homo sapiens (Human), UniProt P10415); test: Bcl-2 TR-FRET Assay; assay type: binding; conditions: Bcl-2 wild type, TR-FRET; read-out: Biochemical assay (IC50, nM) Bcl-2 WT
Summary of the method: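 In pH 7.5 phosphate buffer containing NaCl, EDTA, Tween-20 and BSA, 0.05 nM Bcl-2 saw serially diluted compound for 0.5 h before 0.5 nM FITC-Bak peptide was added. Signal ratio at 520/490 nm after 1 h yielded IC50.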

[5] = tested on: RS4;11 (BCL-2 dependent acute lymphoblastic leukemia cell line); test: RS4;11 Cell Proliferation Assay; assay type: cell-based; conditions: Homo sapiens, RS4-11, RS4;11 cells, read-out: Cellular proliferation assay (IC50, nM) RS4
Summary of the method: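 Viability measured via CellTiter-Glo luminescence after a 48 h, 37 °C exposure to compounds (10 points, highest 1 μM). Seeding was 50,000 RS4;11 cells per well in 10% FBS RPMI-1640; IC50 given as mean.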

| SMILES | IC50 [1] | Ratio of Bcl-2 G101V/WT [2] | IC50 [3] | IC50 [4] | IC50 [5] |
| --- | --- | --- | --- | --- | --- |
| CC(C)c1ccccc1C1CN(Cc2cccc3c2OCCC3)CCN1C1CC2(CCN(c3ccc(C(=O)NS(=O)(=O)c4ccc(NC[C@H]5CC[C@](C)(O)CC5)c([N+](=O)[O-])c4)c(Oc4cnc5[nH]ccc5c4)c3)CC2)C1 (stereo partly drawn) [Example 130, 2-((1H-pyrrolo[2,3-b]pyridin-5-yl)oxy)-4-(2-(4-(chroman-8-ylmethyl)-2-(2-isopropylphenyl)piperazin-1-yl)-7-azaspiro[3.5]nonan-7-yl)-N-((4-((((1r,4r)-4-hydroxy-4-methylcyclohexyl)methyl)amino)-3-nitrophenyl)sulfonyl)benzamide] | 2.8 nM | 3.4 | 1.9 nM | 0.57 nM | 0.34 nM |
| CC(C)c1ccccc1C1CN(Cc2cccc3c2N(C)CCO3)CCN1C1CC2(CCN(c3ccc(C(=O)NS(=O)(=O)c4ccc(NC[C@H]5CC[C@](C)(O)CC5)c([N+](=O)[O-])c4)c(Oc4cnc5[nH]ccc5c4)c3)CC2)C1 (stereo partly drawn) [Example 200, 2-((1H-pyrrolo[2,3-b]pyridin-5-yl)oxy)-N-((4-((((1r,4r)-4-hydroxy-4-methylcyclohexyl)methyl)amino)-3-nitrophenyl)sulfonyl)-4-(2-(2-(2-isopropylphenyl)-4-((4-methyl-3,4-dihydro-2H-benzo[b][1,4]oxazin-5-yl)methyl)piperazin-1-yl)-7-azaspiro[3.5]nonan-7-yl) benzamide] | 1.6 nM | 4.2 | 1.02 nM | 0.24 nM | 0.27 nM |
| COc1cc(CN2CCN(C3CC4(C3)CN(c3ccc(C(=O)NS(=O)(=O)c5ccc(NC[C@H]6CC[C@](C)(O)CC6)c([N+](=O)[O-])c5)c(Oc5cnc6[nH]cc(F)c6c5)c3)C4)[C@H](c3ccccc3C(C)C)C2)cc2occc12 [Example 332, 2-((3-fluoro-1H-pyrrolo[2,3-b]pyridin-5-yl)oxy)-N-((4-((((1r,4r)-4-hydroxy-4-methylcyclohexyl)methyl)amino)-3-nitrophenyl)sulfonyl)-4-(6-((R)-2-(2-isopropylphenyl)-4-((4-methoxybenzofuran-6-yl)methyl)piperazin-1-yl)-2-azaspiro[3.3]heptan-2-yl)benzamide] | 0.54 nM | 1.6 | 1.1 nM | 0.7 nM | 0.17 nM |
| CC(C)c1ccccc1C1CN(Cc2ccc3c(c2)CCCC3)CCN1C1CC2(CCN(c3ccc(C(=O)NS(=O)(=O)c4ccc(NC[C@H]5CC[C@](C)(O)CC5)c([N+](=O)[O-])c4)c(Oc4cnc5[nH]ccc5c4)c3)CC2)C1 (stereo partly drawn) [Example 54, 2-((1H-pyrrolo[2,3-b]pyridin-5-yl)oxy)-N-((4-((((1r,4r)-4-hydroxy-4-methylcyclohexyl)methyl)amino)-3-nitrophenyl)sulfonyl)-4-(2-(2-(2-isopropylphenyl)-4-((5,6,7,8-tetrahydronaphthalen-2-yl)methyl)piperazin-1-yl)-7-azaspiro[3.5]nonan-7-yl)benzamide] | 11.7 nM | 6.2 | 4.7 nM | 0.76 nM | 0.79 nM |
| [2H]C([2H])([2H])Oc1ccc(CN2CCN(C3CC4(CCN(c5ccc(C(=O)NS(=O)(=O)c6ccc(NC[C@H]7CC[C@](C)(O)CC7)c([N+](=O)[O-])c6)c(Oc6cnc7[nH]ccc7c6)c5)CC4)C3)[C@H](c3ccccc3C(C)C)C2)cc1OC([2H])([2H])[2H] [Example 253, 2-((1H-pyrrolo[2,3-b]pyridin-5-yl)oxy)-4-(2-((R)-4-(3,4-bis(methoxy-d3)benzyl)-2-(2-isopropylphenyl)piperazin-1-yl)-7-azaspiro[3.5]nonan-7-yl)-N-((4-((((1r,4r)-4-hydroxy-4-methylcyclohexyl)methyl)amino)-3-nitrophenyl)sulfonyl)benzamide] | 0.29 nM | 3.3 | 0.089 nM | 0.027 nM | 0.11 nM |
| COc1cc(CN2CCN(C3CC4(CCN(c5ccc(C(=O)NS(=O)(=O)c6ccc(NC[C@H]7CC[C@](C)(O)CC7)c([N+](=O)[O-])c6)c(Oc6cnc7[nH]ccc7c6)c5)CC4)C3)C(c3ccccc3C(C)C)C2)ccc1Cl (stereo partly drawn) [Example 126, 2-((1H-pyrrolo[2,3-b]pyridin-5-yl)oxy)-4-(2-(4-(4-chloro-3-methoxybenzyl)-2-(2-isopropylphenyl)piperazin-1-yl)-7-azaspiro[3.5]nonan-7-yl)-N-((4-((((1r,4r)-4-hydroxy-4-methylcyclohexyl)methyl)amino)-3-nitrophenyl)sulfonyl)benzamide] | 3.6 nM | 4.5 | 1.9 nM | 0.42 nM | 0.18 nM |
| COc1cc(CN2CCN(C3CC4(C3)CN(c3ccc(C(=O)NS(=O)(=O)c5ccc(NC[C@H]6CC[C@](C)(O)CC6)c([N+](=O)[O-])c5)c(Oc5cnc6[nH]ccc6c5)c3)C4)[C@H](c3ccccc3C(C)C)C2)cc2c1OC(C)(C)CC2 [Example 336, 2-((1H-pyrrolo[2,3-b]pyridin-5-yl)oxy)-N-((4-((((1r,4r)-4-hydroxy-4-methylcyclohexyl)methyl)amino)-3-nitrophenyl)sulfonyl)-4-(6-((R)-2-(2-isopropylphenyl)-4-((8-methoxy-2,2-dimethylchroman-6-yl)methyl)piperazin-1-yl)-2-azaspiro[3.3]heptan-2-yl) benzamide] | 1.1 nM | 4.2 | 0.38 nM | 0.09 nM | 0.2 nM |
| COc1ccc(CN2CCN(C3CC4(CCN(c5ccc(C(=O)NS(=O)(=O)c6ccc(NC[C@H]7CC[C@](C)(O)CC7)c([N+](=O)[O-])c6)c(Oc6cnc7[nH]ccc7c6)c5)CC4)C3)C(c3ccccc3C(C)C)C2)cc1OC(F)F (stereo partly drawn) [Example 169, 2-((1H-pyrrolo[2,3-b]pyridin-5-yl)oxy)-4-(2-(4-(3-(difluoromethoxy)-4-methoxybenzyl)-2-(2-isopropylphenyl)piperazin-1-yl)-7-azaspiro[3.5]nonan-7-yl)-N-((4-((((1r,4r)-4-hydroxy-4-methylcyclohexyl)methyl)amino)-3-nitrophenyl)sulfonyl)benzamide] | 1.5 nM | 3.9 | 2.4 nM | 0.62 nM | 0.49 nM |
| COc1cnc(CN2CCN(C3CC4(CCN(c5ccc(C(=O)NS(=O)(=O)c6ccc(NC[C@H]7CC[C@](C)(O)CC7)c([N+](=O)[O-])c6)c(Oc6cnc7[nH]ccc7c6)c5)CC4)C3)C(c3ccccc3C(C)C)C2)cn1 (stereo partly drawn) [Example 154, 2-((1H-pyrrolo[2,3-b]pyridin-5-yl)oxy)-N-((4-((((1r,4r)-4-hydroxy-4-methylcyclohexyl)methyl)amino)-3-nitrophenyl)sulfonyl)-4-(2-(2-(2-isopropylphenyl)-4-((5-methoxypyrazin-2-yl)methyl)piperazin-1-yl)-7-azaspiro[3.5]nonan-7-yl)benzamide] | 2.22 nM | 6 | 0.3 nM | 0.05 nM | 0.38 nM |
| CC(C)c1ccccc1[C@@H]1CN(Cc2ccc3c(c2)OCC3(C)C)CCN1C1CC2(C1)CN(c1ccc(C(=O)NS(=O)(=O)c3ccc(NC[C@H]4CC[C@](C)(O)CC4)c([N+](=O)[O-])c3)c(Oc3cnc4[nH]cc(F)c4c3)c1)C2 [Example 311, 4-(6-((R)-4-((3,3-dimethyl-2,3-dihydrobenzofuran-6-yl)methyl)-2-(2-isopropylphenyl)piperazin-1-yl)-2-azaspiro[3.3]heptan-2-yl)-2-((3-fluoro-1H-pyrrolo[2,3-b]pyridin-5-yl)oxy)-N-((4-((((1r,4r)-4-hydroxy-4-methylcyclohexyl)methyl)amino)-3-nitrophenyl)sulfonyl)benzamide] | 2.3 nM | 3.4 | 1.5 nM | 0.43 nM | 0.42 nM |
| COc1cc(CN2CCN(C3CC4(CCN(c5ccc(C(=O)NS(=O)(=O)c6ccc(NC[C@H]7CC[C@](C)(O)CC7)c([N+](=O)[O-])c6)c(Oc6cnc7[nH]ccc7c6)c5)CC4)C3)C(c3ccccc3C(C)C)C2)cc(F)c1OC (stereo partly drawn) [Example 152, 2-((1H-pyrrolo[2,3-b]pyridin-5-yl)oxy)-4-(2-(4-(3-fluoro-4,5-dimethoxybenzyl)-2-(2-isopropylphenyl)piperazin-1-yl)-7-azaspiro[3.5]nonan-7-yl)-N-((4-((((1r,4r)-4-hydroxy-4-methylcyclohexyl)methyl)amino)-3-nitrophenyl)sulfonyl)benzamide] | 1.31 nM | 3.5 | 0.89 nM | 0.25 nM | 0.35 nM |
| COc1cc(CN2CCN(C3CC4(CCN(c5ccc(C(=O)NS(=O)(=O)c6ccc(NC[C@H]7CC[C@](C)(O)CC7)c([N+](=O)[O-])c6)c(Oc6cnc7[nH]cc(F)c7c6)c5)CC4)C3)[C@H](c3ccccc3C(C)C)C2)ccc1C(F)F [Example 287] | 0.55 nM | 2.6 | 2.3 nM | 0.87 nM | 0.16 nM |
